Data on one compound can be found in patent US7981871B2, “Modified macromolescules and associated methods of synthesis and use” (University of Utah Research Foundation, priority 2003, dated 2011).

Common to all, as to assay: Sensitivity to PI3K inhibitor and Taxol in 3-D culture (Carbylan-GSX hydrogels)
Holding throughout (assay type): cell-based, Human

For one assay, the system named is CaCo-2. How it is done:
(§1) Human breast cancer cell lines (MDA-MB-231 and MDA-MB-468), colon adenocarcinoma cell lines (Caco2, HCT116, and HCA7), and ovarian cancer cell (SK-OV-3) were obtained from American Type Culture Collections (ATCC) and maintained in RPMI 1640 medium (GIBCO) supplemented with 10 mM HEPES, 10% fetal bovine serum (Hyclone), 0.4 mM sodium pyruvate, and […], 100 U/ml penicillin, and 100 ug/ml streptomycin.
(§2) When reaching 80-90% confluence, the above cell lines were trypsinized with 0.25% trypsin containing 1 mM EDTA and suspended in 1.25% (w/v) Carbylan™-S and 3% (w/v) gelatin-DTPH in a 50:50 (v/v) ratio in serum-free RPMI medium (pH 7.4), and then 4% (w/v) solution of PEGDA in DPBS buffer was added to the Carbylan™-S/gelatin-DTPH solution at a ratio of 4:1 (Carbylan™-S :PEGDA, v:v) and mixed by vortexing for 30 second. The final concentration of cells in Carbylan™-GSX solution was 2.0×10^6/ml. Aliquots ([…]) of each reaction mixture loaded with cells were transferred by pipette into 24-well cell culture inserts (Coming incorporated, Coming, N.Y.) with 6.5 mm in diameter and […]. The cell loaded inserts were incubated in incubator (37° C. and 5% CO2) for two hours and then 2 ml of RPMI 1640 medium containing 10% FBS was added into each into each insert. The media were changed every two days. Two weeks after the initial culture, the media were removed from the inserts and changed with 10 mM of LY-294002 (Sigma) and 1 mg/ml of paclitaxel (Sigma) in RPMI 1640 medium containing 0.5% FBS. There were total eight inserts for each reagent each cell line. The media were also changed every two days. Two weeks after the media were changed to LY-294002 and paclitaxel containing media, the media were removed from the inserts and changed with 1.5 ml RPMI 1640 media containing 5% FBS and 15% (v/v) CellTiter 96 aqueous one solution cell proliferation assay (Promega, Madison, Wis.) and incubated in incubator (37° C. and 5% CO2) for three hours and then the reaction solution was transferred into 96-well plate ([…]) and the absorbance was read at 550 nm with an OPTI Max microplate reader (Molecular Devices). The inserts were rinsed twice with DPBS buffer and stained with FDA and PI at RT for 5 min and observed using a confocal laser scanning microscope (LSM 510, Carl Zeiss Microimaging, Inc., Thornwood, N.Y.).

A further assay relates to HCA7. The settings on record: 10 mM LY-294002 or 1 mg/ml paclitaxel, two weeks. The protocol:
as §1, §2

The test system of a further assay is HCT116. The settings on record: 10 mM LY-294002 or 1 mg/ml paclitaxel, two weeks. The protocol:
as §1, §2

The test system of a further assay is MDA-MB-231. Particulars: MDA-MB-231 in Carbylan-GSX; 10 mM LY-294002 or 1 mg/ml paclitaxel; two weeks. The protocol:
as §1, §2

In the next assay the test system is MDA-MB-468. Particulars: MDA-MB-468 in Carbylan-GSX; 10 mM LY-294002 or 1 mg/ml paclitaxel; two weeks. The protocol:
as §1, §2

For the next assay, the system named is SK-OV-3. The protocol: as §1, §2

In the case of `CC(=O)O[C@H]1C(=O)[C@@]2(C)[C@H]([C@H](OC(=O)c3ccccc3)[C@]3(O)C[C@H](OC(=O)[C@H](O)[C@@H](NC(=O)c4ccccc4)c4ccccc4)C(C)=C1C3(C)C)[C@]1(OC(C)=O)CO[C@@H]1C[C@@H]2O` [paclitaxel], the “proliferation (CellTiter 96, absorbance at 550 nm)” value in the assay with CaCo-2 (CaCo-2 in Carbylan-GSX, 10 mM LY-294002 or 1 mg/ml paclitaxel, two weeks) is “inhibited”; with HCA7 it was “inhibited”; in the assay on HCT116 it was “inhibited”; in the assay with MDA-MB-231 it was “Neither LY294002 and paclitaxel showed any inhibition effects”; with MDA-MB-468, “inhibited”; in the assay with SK-OV-3 (SK-OV-3 in Carbylan-GSX, 10 mM LY-294002 or 1 mg/ml paclitaxel, two weeks), “Neither LY294002 and paclitaxel showed any inhibition effects”. Moreover, the “cell density in sECM hydrogels (FDA/PI staining)” value in the assay with CaCo-2 (Caco-2, compared to cells cultured in normal medium) is given as “decreased”. Besides, the “3-D morphology (FDA/PI staining)” value in the assay with SK-OV-3 (SK-OV-3, compared to cells cultured in normal medium) is reported as “no obvious difference”.
